Measurements taken from patent US11000491B2, “Amino-aryl-benzamide compounds and methods of use thereof” (HEPANOVA, INC., priority 2017, dated 2021).
Like-named read-outs stand apart in the source and are kept apart here.

Assays:
[1] = system: nSTZ+HFD NASH mice; test: Streptozotocin (STZ) and high fat diet-induced (nSTZ+HFD) NASH mice; type: in vivo, C57/BL6J mice; conditions: 5 or 15 mpk orally BID, 3 weeks
Experimental: FIG. 27. Design of study to test in vivo HPN-01 efficacy on streptozotocin (STZ) and high fat diet-induced (nSTZ+HFD) NASH mice.
The effect of HPN-01 on various physical and biochemical parameters in mice induced to develop NASH was tested. Briefly, newborn C57/BL6J mice were divided into 5 groups, with 8 animals per group. […] The remaining four groups were injected on days 2, 3 and 4, with Vehicle (Vehicle consists of 40% PEG400:10% Cremophor EL:50% water) containing 90 μg of streptozotocin (STZ), and fed a high fat diet (HFD) from week 4 through week 9 to establish NASH hallmarks in the liver. One of the groups (Vehicle group) that received STZ was not given any further drug treatment. The remaining three groups received either orally administered Telmisartan or orally administered HPN-01 starting at week 6 and continuing for 3 weeks. Telmisartan was orally administered once per day (QD) at a dosage of 10 mpk (mg/kg weight); this group served as a positive control. HPN-01 was administrated orally twice a day (BID) with either a lower (5 mpk) or a higher (15 mpk) dose. For each group, body weight and food intake were recorded daily.
At the end of the study, animals were fasted overnight, and fasted blood glucose levels measured and compared with a fasted glucose level obtained on Day 1 of the study.
Mice were then euthanized, and whole blood drawn by cardiac puncture. Sera were prepared and stored at −80° C. for alanine aminotransferase (ALT), aspartate aminotransferase (AST), triglyceride (TG) and total cholesterol (TC) detection. Livers were isolated and liver weights were recorded. Liver tissues were stored at −80° C. for TG, TC detection, measurement of various inflammatory and fibrotic markers, and pathological studies.
Liver tissues from various groups from the study shown in FIG. 27 were observed under a microscope following Hematoxylin and Eosin (H&E) stain and Oil-red-O staining, and an NAFLD activity score determined. Additional NAFLD/NASH pathology scores were also determined, including a hepatic steatosis score (FIG. 35B), a ballooning score (FIG. 35C) and an inflammation score (FIG. 35D).

[2] = system: ELOVL6; test: Lipogenic gene mRNA by real-time qPCR in Huh7 cells; type: cell-based; conditions: 1 μM, 24 h
From the text: (§1) FIG. 8. Inhibition of various lipogenic gene mRNA levels following treatment with HPN-01. […] Sterol regulatory element-binding protein-1 (SREBP-1); Sterol regulatory element-binding protein-2 (SREBP-2); Fatty acid synthase (FASN); Stearoyl-CoA-desaturase (SCD1); Acetyl-CoA carboxylase (ACC); Elongation of very long chain fatty acids fatty acid elongase 6 (ELOVL6); Low density liporeceptor (LDLR); Fatty acid desaturase 1 (FADS1); Diacylglycerol 0-Acyltransferase 1 (DGAT1); Diacylglycerol 0-Acyltransferase 2 (DGAT2).
(§2) Huh7 cells were treated with 1 μM of HPN-01 for 24 h, and the mRNA expression levels of various pivotal lipogenic enzymes were quantified by real-time qPCR. […] Folds of inhibition were as follows: SREBP-1: 2.98±0.23; SREBP-2: 4.01±0.31; FASN: 3.87±0.23; SCD1: 4.63±0.48; ACC: 4.12±0.34; ELOVL6: 2.84±0.22; LDLR: 3.02±0.11; FADS1: 3.06±0.17; DGAT1: 1.72±0.27; DGAT2: 3.77±0.45.

[3] = system: FADS1; test: as above; type: cell-based; conditions: 1 μM, 24 h
From the text: as §1, §2

[4] = system: ACC; test: as above; type: cell-based; conditions: 1 μM, 24 h
From the text: as §1, §2

[5] = system: FASN; test: as above; type: cell-based; conditions: 1 μM, 24 h
From the text: as §1, §2

[6] = system: SREBP-2; test: as above; type: cell-based; conditions: 1 μM, 24 h
From the text: as §1, §2

[7] = system: SREBP-1; test: as above; type: cell-based; conditions: 1 μM, 24 h
From the text: as §1, §2

[8] = system: LDLR; test: as above; type: cell-based; conditions: 1 μM, 24 h
From the text: as §1, §2

[9] = system: DGAT2; test: as above; type: cell-based; conditions: 1 μM, 24 h
From the text: as §1, §2

[10] = system: SCD1; test: as above; type: cell-based; conditions: 1 μM, 24 h
From the text: as §1, §2

[11] = system: DGAT1; test: as above; type: cell-based; conditions: 1 μM, 24 h
From the text: as §1, §2

[12] = Cytotoxicity, inhibition of cell growth; type: cell-based; conditions: human, read-out: CC50 (cytotoxic concentration that will kill half of the treated cells)
Experimental: FIGS. 10A and 10B. Inhibition of hepatocyte growth by HPN-01.
Huh7 cells and primary human hepatocytes were cultured in the presence of varying concentrations of HPN-01, and the inhibition of cell growth was measured.

NC(=O)c1cc(-c2ccc(Cl)cc2)cc(-c2ccc(S(N)(=O)=O)cc2)c1N [HPN-01, 2-amino-3-(p-sulfonamidophenyl)-5-(p-chlorophenyl) benzamide]
body weight [1]: no effect
daily food intake [1]: no effect
fasted blood glucose levels ([1]; Day-22 vs Day-1): no effect
elevation of hepatic TC ([1]; dose-dependent): significantly reversed
elevation of hepatic TG ([1]; dose-dependent): significantly reversed
elevation of serum ALT ([1]; dose-dependent): significantly reversed
elevation of serum AST ([1]; dose-dependent): significantly reversed
increase of serum total cholesterol (TC) ([1]; dose-dependent): significantly abated
increase of serum triglyceride (TG) ([1]; dose-dependent): significantly abated
liver COL1A1 level ([1]; dose-dependent): reduced
liver MCP-1 mRNA ([1]; dose-dependent): significantly suppressed
liver TGF-β1 level ([1]; dose-dependent): reduced
liver TIMP-1 level ([1]; dose-dependent): reduced
liver TNF-α mRNA ([1]; dose-dependent): significantly suppressed
Folds of inhibition ELOVL6 mRNA [2]: 2.84±0.22 fold
Folds of inhibition FADS1 mRNA [3]: 3.06±0.17 fold
Folds of inhibition ACC mRNA [4]: 4.12±0.34 fold
Folds of inhibition FASN mRNA [5]: 3.87±0.23 fold
Folds of inhibition SREBP-2 mRNA [6]: 4.01±0.31 fold
Folds of inhibition SREBP-1 mRNA [7]: 2.98±0.23 fold
Folds of inhibition LDLR mRNA [8]: 3.02±0.11 fold
Folds of inhibition DGAT2 mRNA [9]: 3.77±0.45 fold
Folds of inhibition SCD1 mRNA [10]: 4.63±0.48 fold
Folds of inhibition DGAT1 mRNA [11]: 1.72±0.27 fold
CC50 ([12]; Huh7 cells): 54.3 µM
CC50 ([12]; primary human hepatocytes): 77.2 µM
